Read-outs that look alike come from different tables or passages of the source.
Key:
[1] = target: T1, human FLT3 protein (FLT3 (WT)) (Homo sapiens, UniProt P36888); assay: FLT3 inhibition test (FLT3 enzyme inhibition, time-resolved fluorescence of substrate peptide phosphorylation); type: biochemical; settings: read-out: FLT3 (WT) enzyme inhibition activity
T1 construct: human FLT3 protein (intracellular region, 564 to 993 aa); GST; purchased Carna Biosciences; host or cells: baculovirus expression system
T1 sequence (P36888 564-993): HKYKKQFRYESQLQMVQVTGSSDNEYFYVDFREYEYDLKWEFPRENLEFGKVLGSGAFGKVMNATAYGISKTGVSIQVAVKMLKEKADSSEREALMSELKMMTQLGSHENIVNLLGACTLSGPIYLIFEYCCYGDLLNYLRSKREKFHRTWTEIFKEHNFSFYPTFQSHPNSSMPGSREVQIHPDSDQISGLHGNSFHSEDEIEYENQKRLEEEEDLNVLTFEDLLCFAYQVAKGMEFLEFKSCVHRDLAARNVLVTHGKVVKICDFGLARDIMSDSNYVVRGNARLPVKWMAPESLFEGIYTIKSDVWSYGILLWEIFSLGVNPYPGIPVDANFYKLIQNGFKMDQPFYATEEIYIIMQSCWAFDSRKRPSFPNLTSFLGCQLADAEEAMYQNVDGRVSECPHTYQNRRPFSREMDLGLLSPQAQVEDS
Outline: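 Substrate peptide phosphorylation detected by time-resolved fluorescence after a 30 min kinase reaction at 25° C with 50 μM ATP (final). Beforehand, compound and FLT3 (WT, 1.2 μg) stood 15 min at 25° C in HEPES buffer pH 7.5 containing MgCl2, NaCl, BSA and DTT.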

MV4-11 cells = assay: Leukemia cell proliferation inhibition test (ATPlite), MV4-11; type: cell-based; settings: Homo sapiens, read-out: MV4-11 cell proliferation inhibition effect
Outline: (§1)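 Molm-13 or MV4-11 cells in RPMI with 10% FBS and pen/strep, seeded at 10,000 cells per well, were exposed to serially diluted compound for 72 hours at 37° C, 5% CO2. Total cellular ATP was read by luciferase luminescence. GI50 came from sigmoid fits against the 0.1% DMSO control, in duplicate.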

Molm-13 cells = assay: Leukemia cell proliferation inhibition test (ATPlite), Molm-13; type: cell-based; settings: Homo sapiens, read-out: MOLM13 cell proliferation inhibition effect
Outline: as §1

[2] = GST-fused human FLT3 (564 to 993 aa), ATP 50 μM
[3] = MV4-11, 72 h, MV4-11, 72 hours culture, ATPlite, GI50 per method
[4] = MOLM-13, 72 h, Molm-13, 72 hours culture, ATPlite, GI50 per method

Row | IC50 ([1]; FLT3 (WT)) [nM] | IC50 (MV4-11 cells; MV4-11, MV4-11 cell) [nM] | IC50 (Molm-13 cells; MOLM-13, MOLM13 cell) [nM] | IC50 [1, 2] [nM] | IC50 (MV4-11 cells; [3]) [nM] | IC50 (Molm-13 cells; [4]) [nM] | Structure (SMILES)
1 | < 10 | < 10 | < 10 |  |  |  | CCCNc1nc(Nc2ccc3c(c2)c(OC)nn3C)ncc1C#CCCCNC(=O)[C@H](C)N(C)C(=O)/C=C/CN(C)C [Compound 22-25]
2 |  |  |  | < 10 | < 10 | < 10 | COCCCNc1nc(Nc2ccc(C#N)cc2)ncc1C#CCCCNC(=O)[C@H](C)N(C)C(=O)/C=C/CN(C)C [Compound 10-49]
3 | < 10 | < 10 | < 10 |  |  |  | CCCNc1nc(Nc2cnc3c(c2)c(C)nn3C)ncc1C#CCCCNC(=O)[C@@H]1CCCN1C(=O)/C=C/CN(C)C [Compound 22-45]
4 |  |  |  | < 10 | < 10 | < 10 | C[C@@H](C(=O)N[C@H]1C[C@@H](C#Cc2cnc(Nc3cccc(F)c3)nc2NCCCF)C1)N(C)C(=O)/C=C/CN(C)C [Compound 15-13, (E)-4-(Dimethylamino)-N—((S)-1-(((1S,3R)-3-((2-((3-fluorophenyl)amino)-4-((3-fluoropropyl)amino)pyrimidin-5-yl)ethynyl)cyclobutyl)amino)-1-oxopropan-2-yl)-N-methyl-2-butenamide]
5 | < 10 | < 10 | < 10 |  |  |  | CCCNc1nc(Nc2cccc(-n3nccn3)c2)ncc1C#CCCCNC(=O)[C@H](C)N(C)C(=O)/C=C/CN(C)C [Compound 22-19]
6 |  |  |  | < 10 | < 10 | < 10 | COCCCNc1nc(Nc2cccc(F)c2)ncc1C#C[C@H]1C[C@@H](NC(=O)[C@H](C)N(C)C(=O)/C=C/CN(C)C)C1 [Compound 15-15, (E)-4-(Dimethylamino)-N—((S)-1-(((1S,3R)-3-((2-((3-fluorophenyl)amino)-4-((3-methoxypropyl)amino)pyrimidin-5-yl)ethynyl)cyclobutyl)amino)-1-oxopropan-2-yl)-N-methyl-2-butenamide]
7 | 10 to 100 | 100 to 1000 | 10 to 100 |  |  |  | CCCNc1nc(Nc2cc(F)c3c(c2)c(N(C)C)nn3C)ncc1C#CCCCNC(=O)[C@H](C)N(C)C(=O)/C=C/CN(C)C [Compound 22-13]
8 |  |  |  | 10 to 100 | 100 to 1000 | 100 to 1000 | CCCNc1nc(Nc2cccc(F)c2)ncc1CNc1cccc(NC(=O)[C@H](C)N(C)C(=O)/C=C/CN(C)C)c1 [Compound 6-21]
9 |  |  |  | < 10 | < 10 | < 10 | CCCNc1nc(Nc2cccc(F)c2)ncc1C#C[C@H]1C[C@@H](NC(=O)[C@H](C)N(C)C(=O)/C=C/CN(C)C)C1 [Compound 13-8, (E)-4-(Dimethylamino)-N—((S)-1-(((1S,3R)-3-((2-((3-fluorophenyl)amino)-4-(propylamino)pyrimidin-5-yl)ethynyl)cyclobutyl)amino)-1-oxopropan-2-yl)-N-methyl-2-butenamide]
10 | < 10 | < 10 | < 10 |  |  |  | CCCNc1nc(Nc2ccc3c(c2)c(OC)nn3C)ncc1C#CCCCNC(=O)[C@@H]1CCCN1C(=O)/C=C/CN(C)C [Compound 22-30]
11 | < 10 | < 10 | < 10 |  |  |  | COCCNc1nc(Nc2ccc(F)cc2)ncc1C#C[C@@H]1CCC[C@H](NC(=O)[C@H](C)N(C)C(=O)/C=C/CN(C)C)C1 [Compound 22-37]
12 |  |  |  | < 10 | < 10 | < 10 | CCCNc1nc(Nc2ccc(C(N)=O)cc2)ncc1C(=O)NCCCNC(=O)[C@H](C)N(C)C(=O)/C=C/CN(C)C [Compound 5-1, (S,E)-2-((4-carbamoylphenyl)amino)-N-(3-(2-(4-(dimethylamino)-N-methyl-2-butenamido)propaneamido)propyl)-4-(propylamino)pyrimidine-5-carboxamide]
13 |  |  |  | < 10 | < 10 | < 10 | C[C@@H](C(=O)NCCCC#Cc1cnc(Nc2cccc(F)c2)nc1NCC1CCOCC1)N(C)C(=O)/C=C/CN(C)C [Compound 10-7]
14 |  |  |  | 10 to 100 | 100 to 1000 | > 1000 | CCCNc1nc(Nc2ccc(C#N)cc2)ncc1/C=C\CNC(=O)CCCNC(=O)/C=C/CN(C)C [Compound 7-96]
15 |  |  |  | < 10 | < 10 | < 10 | CCCNc1nc(Nc2ccc(C(N)=O)cc2)ncc1C(=O)Nc1cccc(NC(=O)[C@H](C)N(C)C(=O)/C=C/CNC(C)(C)C)c1 [Compound 4-4]
16 |  |  |  | < 10 | < 10 | < 10 | CCCNc1nc(Nc2ccc(C(N)=O)cc2)ncc1C(=O)Nc1cccc(NC(=O)[C@H](C)N(C)C(=O)/C=C/CN2CC(O)C2)c1 [Compound 4-5]

Row | IC50 ([1]; FLT3 (WT)) [nM] | IC50 (MV4-11 cells; MV4-11, MV4-11 cell) [nM] | IC50 (Molm-13 cells; MOLM-13, MOLM13 cell) [nM] | IC50 [1, 2] [nM] | IC50 (MV4-11 cells; [3]) [nM] | IC50 (Molm-13 cells; [4]) [nM] | Structure (SMILES)
17 |  |  |  | < 10 | < 10 | < 10 | CNc1nc(Nc2ccc(F)cc2)ncc1C#CCCCNC(=O)[C@@H]1C[C@H](C)CN1C(=O)/C=C/CN(C)C [Compound 7-92]
18 |  |  |  | < 10 | < 10 | < 10 | CCCNc1nc(Nc2cnc3ccc(OC)cc3c2)ncc1C#CCCCNC(=O)[C@H](C)N(C)C(=O)/C=C/CN(C)C [Compound 21-16]
19 |  |  |  | < 10 | < 10 | 10 to 100 | CC#CC(=O)N(C)[C@@H](C)C(=O)Nc1cccc(NC(=O)c2cnc(Nc3ccc(C(N)=O)cc3)nc2NCCC)c1 [Compound 3-11]
20 |  |  |  | < 10 | < 10 | < 10 | C[C@@H](C(=O)NCCCC#Cc1cnc(Nc2ccc(C#N)cc2)nc1N1CCC(F)CC1)N(C)C(=O)/C=C/CN(C)C [Compound 10-41]
21 |  |  |  | < 10 | < 10 | 10 to 100 | CCCNc1nc(NCCc2ccncc2)ncc1C(=O)Nc1cccc(NC(=O)[C@H](C)NC(=O)/C=C/CN(C)C)c1 [Compound 1-2, (S,E)-N-(3-(2-(4-(dimethylamino)-2-butenamido)propanamido)phenyl)-4-(propylamino)-2-((2-(pyridin-4-yl)ethyl)amino)pyrimidine-5-carboxamide]
22 |  |  |  | < 10 | < 10 | < 10 | CCCNc1nc(Nc2ccc(C#N)cc2)ncc1C#CCCCNC(=O)[C@@H]1CCCCN1C(=O)/C=C/CN(C)C [Compound 7-37]
23 |  |  |  | < 10 | 10 to 100 | 10 to 100 | C[C@@H](C(=O)NCCCC#Cc1cnc(Nc2ccc(F)nc2)nc1N1CCOCC1)N(C)C(=O)/C=C/CN(C)C [Compound 11-9]
24 |  |  |  | 100 to 1000 | 100 to 1000 | 100 to 1000 | C=CC(=O)Nc1cc(NC(=O)c2cnc(NCCc3ccncc3)nc2NCCC)cc(C(F)(F)F)c1 [Compound 2-28]
25 |  |  |  | < 10 | < 10 | < 10 | COCCN(C)c1nc(Nc2ccc(C#N)cc2)ncc1C#CCCCNC(=O)[C@H](C)N(C)C(=O)/C=C/CN(C)C [Compound 10-51]
26 |  |  |  | < 10 | < 10 | < 10 | C[C@@H](C(=O)NCCCC#Cc1cnc(Nc2ccc(C(N)=O)cc2)nc1N1CCCC1)N(C)C(=O)/C=C/CN(C)C [Compound 9-7]
27 |  |  |  | < 10 | < 10 | < 10 | CCCNc1nc(Nc2ccccc2)ncc1C#CCCCNC(=O)[C@H](C)N(C)C(=O)/C=C/CN(C)C [Compound 12-1, (S,E)-4-(dimethylamino)-N-methyl-N-(1-oxo-1-((5-(2-(phenylamino)-4-(propylamino)pyrimidin-5-yl)-4-pentyn-1-yl)amino)propan-2-yl)-2-butenamide]
28 |  |  |  | < 10 | < 10 | < 10 | CNc1nc(Nc2cccc(C#N)c2)ncc1C#C[C@@H]1CCC[C@H](NC(=O)[C@H](C)N(C)C(=O)/C=C/CN(C)C)C1 [Compound 21-1, (E)-N—((S)-1-(((1S,3R)-3-((2-((3-cyanophenyl)amino)-4-(methylamino)pyrimidin-5-yl)ethynyl)cyclohexyl)amino)-1-oxopropan-2-yl)-4-(dimethylamino)-N-methyl-2-butenamide]
29 |  |  |  | < 10 | 100 to 1000 | 100 to 1000 | CCCNc1nc(Nc2ccc(C(N)=O)cc2)ncc1C(=O)Nc1cccc(NC2CCCN(C(=O)/C=C/CN(C)C)CC2)c1 (stereo not drawn) [Compound 3-21]
30 |  |  |  | < 10 | < 10 | 10 to 100 | C=CC(=O)NCC(=O)NC1CCCC(NC(=O)c2cnc(NCCc3ccncc3)nc2NCCC)C1 (stereo not drawn) [Compound 1-4]
31 |  |  |  | < 10 | 10 to 100 | 10 to 100 | CCCNc1nc(Nc2ccc(C(N)=O)cc2)ncc1C(=O)Nc1cccc(NC(=O)[C@H](C)N(C)C(=O)/C=C/CN2CCNCC2)c1 [Compound 4-1, (S,E)-2-((4-carbamoylphenyl)amino)-N-(3-(2-(N-methyl-4-(piperazin-1-yl)-2-butenamido)propanamido)phenyl)-4-(propylamino)pyrimidine-5-carboxamide]
